Measured values: ChEMBL document CHEMBL1250454, “Oral oxytocin antagonists” (J Med Chem, 2010)
Values after ≈ are worked out from the molar mass of the structure shown.

Experiments:
Oxytocin receptor [1] = target: T1, Oxytocin receptor (Rattus norvegicus, UniProt P70536); assay: Displacement of [3H]-oxytocin from rat oxytocin receptor expressed in CHO cells; type: cell-based
T1 sequence (P70536 whole entry): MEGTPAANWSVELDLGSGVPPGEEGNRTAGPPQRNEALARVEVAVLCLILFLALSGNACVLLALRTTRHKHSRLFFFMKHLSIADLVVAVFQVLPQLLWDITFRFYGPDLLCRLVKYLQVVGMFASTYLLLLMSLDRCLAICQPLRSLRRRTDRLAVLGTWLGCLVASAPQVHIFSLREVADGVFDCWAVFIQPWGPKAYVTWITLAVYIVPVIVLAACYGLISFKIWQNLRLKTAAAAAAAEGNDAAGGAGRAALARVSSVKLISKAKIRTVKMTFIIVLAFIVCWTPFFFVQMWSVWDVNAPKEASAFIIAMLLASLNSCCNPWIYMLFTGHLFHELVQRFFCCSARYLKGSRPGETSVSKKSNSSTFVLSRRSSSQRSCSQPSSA

Oxytocin receptor [2] = target: T1, Oxytocin receptor; assay: Antagonist activity at oxytocin receptor in rat uterine strips assessed as inhibition of oxytocin-induced contraction; type: functional; conditions: read-out: pA2 (converted)
Vasopressin V1a receptor [3] = target: T2, Vasopressin V1a receptor (Homo sapiens, UniProt P37288); assay: Displacement of [3H]vasopressin from human vasopressin V1a receptor expressed in CHO cells; type: cell-based
Target sequence in this assay (P37288 whole entry): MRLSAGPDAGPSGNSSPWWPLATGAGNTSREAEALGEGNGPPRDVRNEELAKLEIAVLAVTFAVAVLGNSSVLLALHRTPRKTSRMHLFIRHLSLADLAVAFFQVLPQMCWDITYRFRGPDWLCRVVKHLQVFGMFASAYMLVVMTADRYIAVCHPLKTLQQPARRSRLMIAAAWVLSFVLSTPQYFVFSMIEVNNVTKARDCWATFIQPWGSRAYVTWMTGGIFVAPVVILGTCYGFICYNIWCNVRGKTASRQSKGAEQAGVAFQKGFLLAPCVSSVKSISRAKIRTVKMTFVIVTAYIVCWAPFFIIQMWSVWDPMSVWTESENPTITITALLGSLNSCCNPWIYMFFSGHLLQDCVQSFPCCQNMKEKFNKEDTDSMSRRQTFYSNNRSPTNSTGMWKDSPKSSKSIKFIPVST

Vasopressin V2 receptor [4] = target: T3, Vasopressin V2 receptor (Rattus norvegicus, UniProt Q00788); assay: Displacement of [3H]vasopressin from rat vasopressin V2 receptor in kidney tissue
T3 sequence (Q00788 whole entry): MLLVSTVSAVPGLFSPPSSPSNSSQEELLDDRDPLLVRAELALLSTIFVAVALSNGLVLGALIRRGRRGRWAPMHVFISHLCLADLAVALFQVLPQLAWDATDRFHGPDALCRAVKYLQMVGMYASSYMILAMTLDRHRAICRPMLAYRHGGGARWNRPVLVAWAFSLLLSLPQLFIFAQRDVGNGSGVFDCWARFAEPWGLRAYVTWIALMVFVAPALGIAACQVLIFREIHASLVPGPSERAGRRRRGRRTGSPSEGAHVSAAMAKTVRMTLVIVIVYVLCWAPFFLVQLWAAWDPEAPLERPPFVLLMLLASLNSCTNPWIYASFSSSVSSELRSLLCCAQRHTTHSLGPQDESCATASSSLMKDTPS

Vasopressin V2 receptor [5] = target: T4, Vasopressin V2 receptor (Homo sapiens, UniProt P30518); assay: Displacement of [3H]vasopressin from human vasopressin V2 receptor expressed in CHO cells; type: cell-based
T4 sequence (P30518 whole entry): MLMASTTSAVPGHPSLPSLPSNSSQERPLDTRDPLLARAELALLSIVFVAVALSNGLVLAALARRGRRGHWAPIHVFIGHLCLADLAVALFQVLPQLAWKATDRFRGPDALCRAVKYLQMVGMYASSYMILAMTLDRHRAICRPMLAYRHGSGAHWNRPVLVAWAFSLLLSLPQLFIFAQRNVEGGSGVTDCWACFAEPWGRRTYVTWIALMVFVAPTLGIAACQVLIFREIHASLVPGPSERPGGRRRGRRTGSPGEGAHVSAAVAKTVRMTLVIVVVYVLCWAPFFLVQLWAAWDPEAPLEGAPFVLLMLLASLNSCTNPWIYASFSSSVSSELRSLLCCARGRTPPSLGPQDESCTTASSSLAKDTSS

Vasopressin V1a receptor [6] = target: T5, Vasopressin V1a receptor (Rattus norvegicus, UniProt P30560); assay: Displacement of [3H]vasopressin from rat vasopressin V1a receptor in liver tissue
T5 sequence (P30560 whole entry): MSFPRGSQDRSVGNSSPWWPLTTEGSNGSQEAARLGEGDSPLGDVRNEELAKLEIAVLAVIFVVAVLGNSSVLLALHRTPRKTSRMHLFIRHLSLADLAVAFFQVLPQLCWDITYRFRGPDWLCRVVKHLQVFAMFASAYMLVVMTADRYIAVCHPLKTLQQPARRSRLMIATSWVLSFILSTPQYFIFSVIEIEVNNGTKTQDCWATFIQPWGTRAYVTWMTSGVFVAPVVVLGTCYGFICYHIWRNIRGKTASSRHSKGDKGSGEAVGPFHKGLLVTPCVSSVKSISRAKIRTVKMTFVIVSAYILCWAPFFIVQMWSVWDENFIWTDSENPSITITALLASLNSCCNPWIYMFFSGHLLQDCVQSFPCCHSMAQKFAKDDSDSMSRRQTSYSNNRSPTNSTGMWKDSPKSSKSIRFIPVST

Oxytocin receptor [7] = target: T6, Oxytocin receptor (Homo sapiens, UniProt P30559); assay: Displacement of [3H]-oxytocin from human oxytocin receptor expressed in CHO cells; type: cell-based
T6 sequence (P30559 whole entry): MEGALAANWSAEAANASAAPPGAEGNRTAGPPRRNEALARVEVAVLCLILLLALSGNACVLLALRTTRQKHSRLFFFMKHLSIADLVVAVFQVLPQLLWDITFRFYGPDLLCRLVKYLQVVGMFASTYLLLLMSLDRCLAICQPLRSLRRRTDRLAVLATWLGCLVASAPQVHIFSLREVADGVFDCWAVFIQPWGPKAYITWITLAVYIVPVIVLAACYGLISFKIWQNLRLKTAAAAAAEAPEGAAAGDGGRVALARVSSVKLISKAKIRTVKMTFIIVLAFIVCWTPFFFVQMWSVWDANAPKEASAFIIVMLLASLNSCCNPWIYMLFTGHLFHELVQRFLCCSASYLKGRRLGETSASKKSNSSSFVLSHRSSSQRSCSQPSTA

Vasopressin V1a receptor [8] = target: T2, Vasopressin V1a receptor; assay: Displacement of [3H]vasopressin from human vasopressin V1a receptor expressed in CHO cells at 10 uM; type: cell-based
Target sequence in this assay (P37288 whole entry): as the sequence (P37288 whole entry) above

Vasopressin V1b receptor [9] = target: T7, Vasopressin V1b receptor (Homo sapiens, UniProt P47901); assay: Displacement of [3H]vasopressin from human vasopressin V1b receptor expressed in CHO cells; type: cell-based
T7 sequence (P47901 whole entry): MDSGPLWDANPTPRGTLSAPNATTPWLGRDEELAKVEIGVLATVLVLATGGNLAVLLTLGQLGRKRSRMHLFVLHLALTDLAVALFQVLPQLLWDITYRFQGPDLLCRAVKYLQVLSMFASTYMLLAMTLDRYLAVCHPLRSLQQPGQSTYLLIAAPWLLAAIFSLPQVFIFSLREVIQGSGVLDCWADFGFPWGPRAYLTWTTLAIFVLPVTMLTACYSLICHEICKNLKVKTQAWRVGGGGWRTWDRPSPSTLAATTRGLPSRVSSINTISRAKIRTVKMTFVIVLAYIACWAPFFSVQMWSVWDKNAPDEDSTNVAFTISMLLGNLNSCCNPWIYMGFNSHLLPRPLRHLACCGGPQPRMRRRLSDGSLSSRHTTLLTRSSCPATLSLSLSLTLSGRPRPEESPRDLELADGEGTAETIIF

Oxytocin receptor [10] = target: T6, Oxytocin receptor; assay: Displacement of [3H]-oxytocin from human oxytocin receptor expressed in HEK293-EBNA cells; type: cell-based
Homo sapiens [11] = species on record: Homo sapiens; assay: Selectivity ratio of Ki for human oxytocin receptor Ki for human vasopressin V1a receptor
Homo sapiens [12] = species on record: Homo sapiens; assay: Selectivity ratio of Ki for human oxytocin receptor Ki for human vasopressin V2 receptor
Oxytocin receptor [13] = target: T6, Oxytocin receptor; assay: Displacement of [3H]-oxytocin from oxytocin receptor in human uterus tissue; type: tissue-based
[14] = Oral bioavailability in rat; type: ADME, organism-based; conditions: in vivo
Rattus norvegicus [15] = assay: Inhibition of oxytocin-induced uterine contraction in intraduodenally dosed rat; type: functional
Vasopressin V2 receptor [16] = target: T4, Vasopressin V2 receptor; assay: Displacement of [3H]vasopressin from vasopressin V2 receptor in human kidney tissue
Rattus norvegicus [17] = assay: Inhibition of oxytocin-induced uterine contraction in iv dosed rat; type: functional
Oxytocin receptor [18] = target: T1, Oxytocin receptor; assay: Displacement of [3H]-oxytocin from oxytocin receptor in rat uterus tissue; type: tissue-based
Vasopressin V1a receptor [19] = target: T2, Vasopressin V1a receptor; assay: Displacement of [3H]vasopressin from vasopressin V1a receptor in human liver tissue
Target sequence in this assay (P37288 whole entry): as the sequence (P37288 whole entry) above

Vasopressin V1a receptor [20] = target: T5, Vasopressin V1a receptor; assay: Displacement of [3H]vasopressin from vasopressin V1a receptor in rat liver tissue
Vasopressin V2 receptor [21] = target: T3, Vasopressin V2 receptor; assay: Displacement of [3H]vasopressin from vasopressin V2 receptor in rat kidney tissue
Vasopressin V1a receptor [22] = target: T2, Vasopressin V1a receptor; assay: Displacement of [3H]vasopressin from human vasopressin V1a receptor expressed in CHO cells at 10 uM
Target sequence in this assay (P37288 whole entry, looked up): as the sequence (P37288 whole entry) above

[23] = Oral bioavailability in pregnant rat; type: ADME, organism-based; conditions: female, in vivo
Rattus norvegicus [24] = assay: Inhibition of oxytocin-induced uterine contraction in po dosed rat; type: functional
[25] = Half life in pregnant rat; type: ADME, organism-based; conditions: female, in vivo
Vasopressin V1b receptor [26] = target: T7, Vasopressin V1b receptor; assay: Displacement of [3H]vasopressin from human vasopressin V1b receptor
Vasopressin V1a receptor [27] = target: T2, Vasopressin V1a receptor; assay: Displacement of [3H]vasopressin from human vasopressin V1a receptor
Target sequence in this assay (P37288 whole entry): as the sequence (P37288 whole entry) above

Vasopressin V2 receptor [28] = target: T4, Vasopressin V2 receptor; assay: Displacement of [3H]vasopressin from human vasopressin V2 receptor
[29] = Oral bioavailability in chimpanzee; type: ADME, organism-based, Pan troglodytes; conditions: in vivo
Homo sapiens [30] = species on record: Homo sapiens; assay: Selectivity ratio of Ki for human oxytocin receptor Ki for human vasopressin V1b receptor
[31] = Clearance in rat; type: ADME, organism-based; conditions: in vivo
[32] = Clearance in human; type: ADME, organism-based; conditions: in vivo
[33] = Oral bioavailability in human; type: ADME, organism-based; conditions: in vivo
[34] = Solubility of the compound at pH 7.4; type: physicochemical; conditions: buffer
[35] = Clearance in dog; type: ADME, organism-based, Canis lupus familiaris; conditions: in vivo
Homo sapiens [36] = assay: Toxicity in human assessed as tolerated dosed; type: organism-based; conditions: in vivo
[37] = Half life in human; type: ADME, organism-based; conditions: in vivo

## CCN(Cc1cccnc1)C(=O)c1ccc(Cl)c([C@]2(C)C(=O)N(Cc3ccc(OC)cc3OC)c3ccc(Cl)cc32)c1
Oxytocin receptor [1]
  Ki: 0.0016 µM
Oxytocin receptor [2]
  Kb: 0.00339 µM
Vasopressin V1a receptor [3]
  Ki: 0.143 µM
Vasopressin V2 receptor [4]
  Ki: > 1 µM
Vasopressin V2 receptor [5]
  Ki: > 1 µM
Vasopressin V1a receptor [6]
  Ki: 0.099 µM
Oxytocin receptor [7]
  IC50: 0.0005 µM

## CCOCc1nnc(-c2ccc(OCC)c(C)c2)n1-c1ccc(OC)nc1
Vasopressin V1a receptor [8]
  Ki: 0.549 µM
Vasopressin V1b receptor [9]
  Ki: > 10 µM
Vasopressin V2 receptor [5]
  Ki: > 10 µM

## COc1ccc(-n2c(C)nnc2-c2ccc(-c3ccccc3OC)cc2)cn1
Vasopressin V1a receptor [8]
  Ki: 0.525 µM
Oxytocin receptor [10]
  Ki: 0.056 µM
Vasopressin V1b receptor [9]
  Ki: > 10 µM
Vasopressin V2 receptor [5]
  Ki: 0.5 µM

## COc1ccc(N(Cc2ccc(-c3ccccc3C)cn2)S(=O)(=O)c2cn(C)c(C)n2)cn1
Homo sapiens [11]
  Ratio Ki: 80
Homo sapiens [12]
  Ratio Ki: 15700
Oxytocin receptor [13]
  Ki: 0.0091 µM

## CC[C@H](C)[C@@H]1C(=O)N[C@H](C2Cc3ccccc3C2)C(=O)N1[C@@H](C(=O)N1CCOCC1)c1coc(C)n1 [RETOSIBAN]
[14]
  bioavailability: 100%

## CC1(C)[C@@H]2CC[C@@]1(CS(=O)(=O)N1CCC3(C=Cc4ccccc43)CC1)[C@@](O)(CC(=O)O)C2
Rattus norvegicus [15]
  AD50: 30 mg/kg
Vasopressin V2 receptor [16]
  Ki: 5.6 µM
Homo sapiens [11]
  Ratio Ki: 3
Homo sapiens [12]
  Ratio Ki: 11
Rattus norvegicus [17]
  AD50: 10 mg/kg
Oxytocin receptor [18]
  Ki: 0.37 µM
Vasopressin V1a receptor [19]
  Ki: 1.6 µM
Vasopressin V1a receptor [20]
  Ki: 26 µM
Oxytocin receptor [13]
  Ki: 0.53 µM
Vasopressin V2 receptor [21]
  Ki: 29 µM

## O=C(CN(c1ccccc1)S(=O)(=O)c1ccccc1)N/N=C1\C(=O)Nc2ccccc21
Vasopressin V1a receptor [22]
  inhibition: < 50%

## CO/N=C1/C[C@@H](C(=O)NC[C@@H](O)c2ccccc2)N(C(=O)c2ccc(-c3ccccc3C)cc2)C1
[23]
  bioavailability: 49%
Homo sapiens [11]
  Ratio Ki: 6
Homo sapiens [12]
  Ratio Ki: 350
Rattus norvegicus [17]; Rattus norvegicus, iv
  ED50: 3.5 mg/kg
Oxytocin receptor [2]
  Kb: 0.0158 µM
Rattus norvegicus [24]
  ED50: 89 mg/kg
Oxytocin receptor [13]
  Ki: 0.028 µM
Vasopressin V2 receptor [5]
  Ki: > 10 µM
Oxytocin receptor [7]
  IC50: 0.028 µM
[25]
  half-life: 2.8 h
[14]
  bioavailability: 49%

## CC(C)C[C@@H]1C(=O)N[C@H](C2Cc3ccccc3C2)C(=O)N1[C@@H](C(=O)NC(C)C)c1ccc(N(C)C)cc1
Vasopressin V1b receptor [26]
  Ki: > 50.1 µM
Vasopressin V1a receptor [27]
  Ki: > 39.8 µM
Vasopressin V2 receptor [28]
  Ki: > 79.4 µM

## O=C(Cn1cc(C(F)(F)F)ccc1=O)NCc1cc2cc(C(=O)N3CCC(N4C(=O)OCc5ccccc54)CC3)ccc2o1
Vasopressin V2 receptor [16]
  Ki: > 3 µM
Homo sapiens [11]
  Ratio Ki: 630
Homo sapiens [12]
  Ratio Ki: > 1500
[29]
  bioavailability: 51%

## CC(C)C[C@@H]1C(=O)N[C@H](C2Cc3ccccc3C2)C(=O)N1[C@@H](C(=O)NC(C)C)c1ccc(F)cc1
Homo sapiens [11]
  Ratio Ki: > 1500
Homo sapiens [12]
  Ratio Ki: > 300
Homo sapiens [30]
  Ratio Ki: > 1500
Vasopressin V1b receptor [26]
  Ki: > 6.31 µM
Vasopressin V1a receptor [27]
  Ki: > 6.31 µM
Vasopressin V2 receptor [28]
  Ki: 1.26 µM

## COCc1nnc(N2CC(Oc3ccc(F)cc3Cl)C2)n1-c1ccc(OC)nc1
Homo sapiens [11]
  Ratio Ki: 118
Homo sapiens [12]
  Ratio Ki: 1050
[31]
  clearance: 36 mL/min/kg
[32]
  clearance: > 8 mL/min/kg
Vasopressin V1b receptor [9]
  Ki: > 10 µM
[33]
  bioavailability: 80%
[34]
  solubility: 59 µg/mL (≈ 141 µM)
[35]
  clearance: 8 mL/min/kg
Homo sapiens [36]
  Activity: 0.3 mg
[37]
  half-life: 12 h
